Test results as given in US20250368614A1, “COMPOUNDS AND METHODS FOR YAP/TEAD MODULATION AND INDICATIONS THEREFOR” (OPNA BIO SA, priority 2023, published 2025).

test system: TEAD-dependent transcription (12XGTIIC TEAD response element luciferase reporter) in MSTO-211H cells; test: TEAD-dependent transcription cell-based luciferase reporter assay in MSTO-211H+12XGTIIC cells; settings: Homo sapiens; MSTO-211H+12XGTIIC reporter cells, 24 hours compound incubation, luminescence normalized to cell viability signal, geometric mean; read-out: MSTO-211H GMean IC50 (uM) Cell Assay Reporter Cell Variant: TEAD
Excerpt: Determine Inhibitor Activity Against TEAD-Dependent Transcription in a Cell-Based Reporter Assay
The human mesothelioma cell line MSTO-211H was stably transfected with a pGL4.21 plasmid containing a synthetic promoter with 12 copies of the GTIIC TEAD response element that drives the expression of a luciferase reporter gene^1 using Lipofectamine transfection reagent (Thermo Fisher). Transfected cells were selected using puromycin and single cell clones expressing this construct (referred to as MSTO-211H+12XGTIIC) were generated by limiting dilution. MSTO-211H cells was characterized by genetic alterations in key components of the Hippo pathway^2, resulting in up-regulation of YAP/TEAD-mediated transcription. […] To evaluate TEAD inhibitors, the MSTO-211H+12XGTIIC cell line was seeded in a 96-well plate in 50 μL of culture media at 1×10^4 cells per well and incubated at 37° C. overnight. Serial dilutions of compounds (in total volume of 50 μL of culture media) were added to the cells and incubated at 37° C. for 24 hours. Each plate included cells treated with DMSO as high controls and cells treated with 20 μM of the reference compound K-975 (a known TEAD inhibitor^3) as low controls. Cell viability was assayed by the addition of 25 μL of CellTiter-Fluor reagent (Promega) followed by a 30-minute incubation at 37° C. and quantification of the fluorescence signal (Ex400/Em505). Subsequently, luciferase expression was assayed by the addition of 25 μL of ONE-Glo reagent (Promega) followed by a 10-minute incubation at room temperature and quantification of the luminescence signal. The luminescence signal was normalized to the fluorescence signal to correct for any loss in cell viability over the 24-hour compound incubation period. The percentage of inhibition of normalized luminescence signal, indicative of compound-mediated inhibition of TEAD-dependent transcription, at individual compound concentrations relative to high and low controls was calculated. The data were analyzed by using nonlinear regression to generate IC50 values for individual compounds.

Question: Which IC50 does the source give for `NC(=O)NCCC(=O)N1CCc2c(cccc2Nc2ccc(C(F)(F)F)cc2F)C1` [Compound O-0192, 1-(3-(5-((2-fluoro-4-(trifluoromethyl)phenyl)amino)-3,4-dihydroisoquinolin-2(1H)-yl)-3-oxopropyl)urea] here?
Answer: The IC50 was 0.001 to 10 µM.

Question: With `O=C(NC1CC1)N1CCC(C(=O)N2CCc3c(cccc3Nc3ccc(C(F)(F)F)nc3)C2)C1` (centres unmarked) [Compound O-0096, N-cyclopropyl-3-(5-((6-(trifluoromethyl)pyridin-3-yl)amino)-1,2,3,4-tetrahydroisoquinoline-2-carbonyl)pyrrolidine-1-carboxamide] as the compound, how does the IC50 read?
Answer: Its IC50 is 0.001 to 10 µM.

Question: For `Nc1ccnc(C(=O)N2CCc3c(cccc3Nc3ccc(C(F)(F)F)cc3)C2)c1` [Compound O-0030, (4-aminopyridin-2-yl)(5-((4-(trifluoromethyl)phenyl)amino)-3,4-dihydroisoquinolin-2(1H)-yl)methanone], which IC50 is on record?
Answer: Its IC50 is 0.001 to 10 µM.

Question: For `O=C(NCCC(=O)N1CCc2c(cccc2Nc2ccc(C(F)(F)F)cn2)C1)NC1CC1` [Compound O-0187, 1-cyclopropyl-3-(3-oxo-3-(5-((5-(trifluoromethyl)pyridin-2-yl)amino)-3,4-dihydroisoquinolin-2(1H)-yl)propyl)urea], which IC50 is on record?
Answer: Its IC50 is 0.001 to 10 µM.

Question: For `Cc1nc(CC(=O)N2CCc3c(cccc3Nc3ccc(C(F)(F)F)cc3)C2)co1` [Compound O-0005, 2-(2-methyloxazol-4-yl)-1-(5-((4-(trifluoromethyl)phenyl)amino)-3,4-dihydroisoquinolin-2(1H)-yl)ethan-1-one], which IC50 is on record?
Answer: The IC50 was 0.001 to 10 µM.

Question: For `C=CC(=O)Nc1ccnc(C(=O)N2CCc3c(cccc3Nc3ccc(C(F)(F)F)cc3)C2)c1` [Compound O-0036, N-(2-(5-((4-(trifluoromethyl)phenyl)amino)-1,2,3,4-tetrahydroisoquinoline-2-carbonyl)pyridin-4-yl)acrylamide], which IC50 is on record?
Answer: The IC50 was 0.001 to 10 µM.

Question: How did the IC50 turn out when `NC(=O)NCCC(=O)N1CCc2c(cccc2Nc2ccc(C(F)(F)F)nc2)C1` [Compound O-0189, 1-(3-oxo-3-(5-((6-(trifluoromethyl)pyridin-3-yl)amino)-3,4-dihydroisoquinolin-2(1H)-yl)propyl)urea] was run?
Answer: The IC50 was 0.001 to 10 µM.

Question: `O=C(CCS(=O)(=O)C(F)(F)F)N1CCc2c(ncnc2Nc2ccc(C(F)(F)F)cc2)C1` [Compound O-0024, 1-(4-((4-(trifluoromethyl)phenyl)amino)-5,8-dihydropyrido[3,4-d]pyrimidin-7(6H)-yl)-3-((trifluoromethyl)sulfonyl)propan-1-one] was tested. Which IC50 did it give?
Answer: Its IC50 is 0.001 to 10 µM.

Question: How did the IC50 turn out when `O=C(Cc1cncs1)N1CCc2c(cccc2Nc2ccc(C(F)(F)F)cc2)C1` [Compound O-0003, 2-(thiazol-5-yl)-1-(5-((4-(trifluoromethyl)phenyl)amino)-3,4-dihydroisoquinolin-2(1H)-yl)ethan-1-one] was run?
Answer: Its IC50 is 0.001 to 10 µM.

Question: `C=CC(=O)Nc1nccc(C(=O)N2CCc3c(cccc3Nc3ccc(C(F)(F)F)cc3)C2)n1` [Compound O-0039, N-(4-(5-((4-(trifluoromethyl)phenyl)amino)-1,2,3,4-tetrahydroisoquinoline-2-carbonyl)pyrimidin-2-yl)acrylamide] was tested. Which IC50 did it give?
Answer: The IC50 was 0.001 to 10 µM.

Question: Which IC50 does the source give for `O=C(NCCC(=O)N1CCc2c(cccc2Nc2ccc(C(F)(F)F)c(F)c2)C1)NC1CC1` [Compound O-0188, 1-cyclopropyl-3-(3-(5-((3-fluoro-4-(trifluoromethyl)phenyl)amino)-3,4-dihydroisoquinolin-2(1H)-yl)-3-oxopropyl)urea] here?
Answer: The IC50 was 0.001 to 10 µM.

Question: With `Nc1cc(C(=O)N2CCc3c(cccc3Nc3ccc(C(F)(F)F)cc3)C2)ccn1` [Compound O-0032, (2-aminopyridin-4-yl)(5-((4-(trifluoromethyl)phenyl)amino)-3,4-dihydroisoquinolin-2(1H)-yl)methanone] as the compound, how does the IC50 read?
Answer: The IC50 was 0.001 to 10 µM.

Question: `CN(c1ccc(C(F)(F)F)cc1)c1cccc2c1CCN(C(=O)c1ccc(N)cc1)C2` [Compound O-0015, (4-aminophenyl)(5-(methyl(4-(trifluoromethyl)phenyl)amino)-3,4-dihydroisoquinolin-2(1H)-yl)methanone] was tested. Which IC50 did it give?
Answer: The IC50 was 0.001 to 10 µM.

Question: Which IC50 does the source give for `O=C(NCCC(=O)N1CCc2c(cccc2Nc2ccc(C(F)(F)F)nc2)C1)Nc1ccccn1` [Compound O-0184, 1-(3-oxo-3-(5-((6-(trifluoromethyl)pyridin-3-yl)amino)-3,4-dihydroisoquinolin-2(1H)-yl)propyl)-3-(pyridin-2-yl)urea] here?
Answer: The IC50 was 0.001 to 10 µM.

Question: `NC(=O)N1CCC(C(=O)N2CCc3c(cccc3Nc3ccc(C(F)(F)F)cc3)C2)C1` (centres unmarked) [Compound O-0057, 3-(5-((4-(trifluoromethyl)phenyl)amino)-1,2,3,4-tetrahydroisoquinoline-2-carbonyl)pyrrolidine-1-carboxamide] was tested. Which IC50 did it give?
Answer: Its IC50 is 0.001 to 10 µM.

Question: For `O=C(CCS(=O)(=O)C(F)(F)F)N1CCc2c(cccc2Nc2ccc(C(F)(F)F)nc2)C1` [Compound O-0020, 1-(5-((6-(trifluoromethyl)pyridin-3-yl)amino)-3,4-dihydroisoquinolin-2(1H)-yl)-3-((trifluoromethyl)sulfonyl)propan-1-one], which IC50 is on record?
Answer: The IC50 was 0.001 to 10 µM.

Question: How did the IC50 turn out when `C=CC(=O)Nc1cncc(C(=O)N2CCc3c(cccc3Nc3ccc(C(F)(F)F)cc3)C2)c1` [Compound O-0037, N-(5-(5-((4-(trifluoromethyl)phenyl)amino)-1,2,3,4-tetrahydroisoquinoline-2-carbonyl)pyridin-3-yl)acrylamide] was run?
Answer: Its IC50 is 0.001 to 10 µM.

Question: With `CN(c1ccc(C(F)(F)F)cc1)c1cccc2c1CCN(C(=O)c1cccc3[nH]ccc13)C2` [Compound O-0012, (1H-indol-4-yl)(5-(methyl(4-(trifluoromethyl)phenyl)amino)-3,4-dihydroisoquinolin-2(1H)-yl)methanone] as the compound, how does the IC50 read?
Answer: Its IC50 is 0.001 to 10 µM.

Question: How did the IC50 turn out when `O=C(NCCC(=O)N1CCc2c(cccc2Nc2ccc(C(F)(F)F)nc2)C1)NC1CC1` [Compound O-0195, 1-cyclopropyl-3-(3-oxo-3-(5-((6-(trifluoromethyl)pyridin-3-yl)amino)-3,4-dihydroisoquinolin-2(1H)-yl)propyl)urea] was run?
Answer: Its IC50 is 0.001 to 10 µM.

Question: Which IC50 does the source give for `O=C(NCCC(=O)N1CCc2c(cccc2Nc2ccc(C(F)(F)F)c(F)c2)C1)Nc1ccccn1` [Compound O-0185, 1-(3-(5-((3-fluoro-4-(trifluoromethyl)phenyl)amino)-3,4-dihydroisoquinolin-2(1H)-yl)-3-oxopropyl)-3-(pyridin-2-yl)urea] here?
Answer: The IC50 was 0.001 to 10 µM.

Question: Which IC50 does the source give for `O=C1NC(=O)C(CC(=O)N2CCc3c(cccc3Nc3ccc(C(F)(F)F)cc3)C2)N1` (centres unmarked) [Compound O-0055, 5-(2-oxo-2-(5-((4-(trifluoromethyl)phenyl)amino)-3,4-dihydroisoquinolin-2(1H)-yl)ethyl)imidazolidine-2,4-dione] here?
Answer: Its IC50 is 0.001 to 10 µM.

Question: Which IC50 does the source give for `O=C(CCS(=O)(=O)C(F)(F)F)N1CCc2c(cccc2Nc2ccc(C(F)(F)F)cn2)C1` [Compound O-0021, 1-(5-((5-(trifluoromethyl)pyridin-2-yl)amino)-3,4-dihydroisoquinolin-2(1H)-yl)-3-((trifluoromethyl)sulfonyl)propan-1-one] here?
Answer: The IC50 was 0.001 to 10 µM.

Question: How did the IC50 turn out when `N=C(N)N1CCC(C(=O)N2CCc3c(cccc3Nc3ccc(C(F)(F)F)cn3)C2)C1` (centres unmarked) [Compound O-0203, 3-(5-((5-(trifluoromethyl)pyridin-2-yl)amino)-1,2,3,4-tetrahydroisoquinoline-2-carbonyl)pyrrolidine-1-carboximidamide] was run?
Answer: The IC50 was 0.001 to 10 µM.

Question: With `CS(=O)(=O)c1nccc(C(=O)N2CCc3c(cccc3Nc3ccc(C(F)(F)F)cc3)C2)n1` [Compound O-0040, (2-(methylsulfonyl)pyrimidin-4-yl)(5-((4-(trifluoromethyl)phenyl)amino)-3,4-dihydroisoquinolin-2(1H)-yl)methanone] as the compound, how does the IC50 read?
Answer: Its IC50 is 0.001 to 10 µM.

Question: With `CN(c1ccc(C(F)(F)F)cc1)c1cccc2c1CCN(C(=O)Cc1cn[nH]c1)C2` [Compound O-0011, 1-(5-(methyl(4-(trifluoromethyl)phenyl)amino)-3,4-dihydroisoquinolin-2(1H)-yl)-2-(1H-pyrazol-4-yl)ethan-1-one] as the compound, how does the IC50 read?
Answer: The IC50 was 0.001 to 10 µM.

Question: For `O=C(Nc1ccccn1)N1CCC(C(=O)N2CCc3c(cccc3Nc3ccc(C(F)(F)F)nc3)C2)C1` (centres unmarked) [Compound O-0097, N-(pyridin-2-yl)-3-(5-((6-(trifluoromethyl)pyridin-3-yl)amino)-1,2,3,4-tetrahydroisoquinoline-2-carbonyl)pyrrolidine-1-carboxamide], which IC50 is on record?
Answer: The IC50 was 0.001 to 10 µM.
